Data from PMC11870037 (Molecules, 2024).

Experiments:
[1] = biological target: Dopamine D1 receptor (Rattus norvegicus, UniProt P18901); assay: Dopamine D1 receptor binding ([3H]-SCH23390); conditions: rat striatum
[2] = biological target: NMDA receptor (Rattus norvegicus, UniProt P35439); assay: NMDA receptor binding; conditions: read-out: Ki NDMA
[3] = tested on: mice; assay: Tail suspension test (TST); assay type: in vivo, mouse; conditions: oral, immobility duration
[4] = biological target: T1, M2 muscarinic receptor (Homo sapiens, UniProt P08172); assay: Muscarinic M2 receptor binding (lymphocyte suspension); conditions: lymphocyte suspension and sections
T1 construct: blood lymphocytes were used at a concentration of 1 × 10⁶ cells; endogenous in cells; host or cells: peripheral blood lymphocytes

[5] = Acute toxicity, up-and-down procedure; conditions: female, rat, in vivo; females, F344 rats, oral
Description: The hERG potassium channel blocking potential was evaluated using the whole-cell patch clamp method with hERG channels expressed in HEK 293 cells as the biological material. The Axopatch 200B amplifier and Digidata 1440A converter from Molecular Devices were integral to the setup. Electrodes crafted from borosilicate glass with filament by Sutter Instrument Company were used for recordings.
Command pulse protocols for voltage clamping and data acquisition were managed by pCLAMP […]
The bath solution contained 137 mM NaCl, 5.4 mM KCl, 10 mM glucose, 10 mM HEPES, and 2 mM CaCl2, with pH adjusted to 7.5 by NaOH. The pipet solution was composed of 140 mM KCl, 1 mM MgCl2, 5 mM EGTA, 10 mM HEPES, and 5 mM Na2ATP, with pH adjusted to 7.2 using KOH. The compound 11b was dissolved in a 50% (w/v) DMSO solution at an initial concentration of 1 mM and diluted to the test concentration with the bath solution. […]
number of surviving animals was recorded after 24 h of drug administration, and the percent mortality in each group was calculated. The LD50 values were calculated by using the soft AOT425statpgm […]
group containing 16 mice. […] The duration of immobility during the last 4 minutes of a total time of 6 minutes was recorded, and animals were judged to be immobile when they floated motionless, making only necessary movements to keep their heads above the water. […]

[6] = biological target: T2, NET (Rattus norvegicus, UniProt Q63380); assay: Monoamine uptake transporter assay, [3H]NE uptake by NET; assay type: biochemical
[7] = biological target: T3, Serotonin 5-HT2A receptor (Rattus norvegicus, UniProt P14842); assay: Serotonin 5-HT2A receptor binding ([3H]ketanserin); conditions: rat brain cortex
T3 construct: The cerebral cortex of a rat was finely homogenized using an ULTRA TURAX; from tissue; host or cells: rat cerebral cortex membranes

[8] = biological target: adrenergic α1 receptor; assay: Adrenergic α1 receptor binding assay ([3H]prazosin); conditions: rat cerebral cortex, means ± SEM of three experiments, read-out: Receptor Affinity Ki ± SEM α1
[9] = biological target: T2, NET; assay: biochemical; conditions: Receptor Affinity Ki ± SEM NET, rat hippocampal membrane, [3H]nisoxetine; means ± SEM of three experiments
[10] = biological target: T4, M4 muscarinic cholinergic receptor (Homo sapiens, UniProt P08173); assay: Muscarinic M4 receptor binding (lymphocyte suspension); conditions: lymphocyte suspension and sections
T4 construct: blood lymphocytes were used at a concentration of 1 × 10⁶ cells; endogenous in cells; host or cells: peripheral blood lymphocytes

[11] = biological target: Dopamine transporter (Rattus norvegicus, UniProt P23977); assay: Dopamine transporter binding ([3H]-WIN35,428); conditions: rat striatum; read-out: Ki DAT
[12] = Pharmacokinetic study in rats; assay type: in vivo; conditions: rat, plasma
Description: 7. Pharmacokinetics Study
The HPLC conditions were as follows: Shimadzu LC30AD spectrometer ; column, SHIMADZU C18 (2.1 mm×50 mm, 2 μm); mobile phase A: 0.1% FA-Acetonitrile; mobile phase B: 0.1% FA-Deionized water; ﬂow rate, 0.4 mL/min; column temperature: 25 °C; UV detection was performed at 210 nm. The Mass conditions were as follows: ESI (positive), Ion spray voltage: 5500V, Curtain gass: 30, Temperature: 550°C, Ion Source Gas1: 55, Collision Gas: 7. For routine compound 11b screening, rats (n = 6/group) were dosed via the lateral tail vein at the indicated dose for iv administration (2 mg/kg, NS) or via oral gavage (20 mg/kg, Deionized water). At 0, 0.08, 0.25, 0.5,1、2、4、7、10 and 24h after administration, serial blood samples were collected from the lateral tail vein into heparinized collection tubes (approximately 0.25 mL). The plasma was separated by centrifugation, and the sample was prepared for LC/MS analysis by protein precipitation with acetonitrile. The plasma samples were analyzed for drug and internal standard via the LCMS/MS protocol.

[13] = biological target: T5, Serotonin 5-HT2C receptor (Rattus norvegicus, UniProt P08909); assay: Serotonin 5-HT2C receptor binding ([3H]mesulergine); conditions: rat brain cortex
T5 construct: The cerebral cortex of a rat was processed by homogenization; from tissue; host or cells: rat cerebral cortex membranes

[14] = biological target: T6, hERG potassium channel (Homo sapiens, UniProt Q12809); assay: hERG whole-cell patch clamp in HEK 293 cells; assay type: cell-based
T6 construct: expressed in transfected cells; host or cells: HEK 293
T6 sequence (Q12809 whole entry): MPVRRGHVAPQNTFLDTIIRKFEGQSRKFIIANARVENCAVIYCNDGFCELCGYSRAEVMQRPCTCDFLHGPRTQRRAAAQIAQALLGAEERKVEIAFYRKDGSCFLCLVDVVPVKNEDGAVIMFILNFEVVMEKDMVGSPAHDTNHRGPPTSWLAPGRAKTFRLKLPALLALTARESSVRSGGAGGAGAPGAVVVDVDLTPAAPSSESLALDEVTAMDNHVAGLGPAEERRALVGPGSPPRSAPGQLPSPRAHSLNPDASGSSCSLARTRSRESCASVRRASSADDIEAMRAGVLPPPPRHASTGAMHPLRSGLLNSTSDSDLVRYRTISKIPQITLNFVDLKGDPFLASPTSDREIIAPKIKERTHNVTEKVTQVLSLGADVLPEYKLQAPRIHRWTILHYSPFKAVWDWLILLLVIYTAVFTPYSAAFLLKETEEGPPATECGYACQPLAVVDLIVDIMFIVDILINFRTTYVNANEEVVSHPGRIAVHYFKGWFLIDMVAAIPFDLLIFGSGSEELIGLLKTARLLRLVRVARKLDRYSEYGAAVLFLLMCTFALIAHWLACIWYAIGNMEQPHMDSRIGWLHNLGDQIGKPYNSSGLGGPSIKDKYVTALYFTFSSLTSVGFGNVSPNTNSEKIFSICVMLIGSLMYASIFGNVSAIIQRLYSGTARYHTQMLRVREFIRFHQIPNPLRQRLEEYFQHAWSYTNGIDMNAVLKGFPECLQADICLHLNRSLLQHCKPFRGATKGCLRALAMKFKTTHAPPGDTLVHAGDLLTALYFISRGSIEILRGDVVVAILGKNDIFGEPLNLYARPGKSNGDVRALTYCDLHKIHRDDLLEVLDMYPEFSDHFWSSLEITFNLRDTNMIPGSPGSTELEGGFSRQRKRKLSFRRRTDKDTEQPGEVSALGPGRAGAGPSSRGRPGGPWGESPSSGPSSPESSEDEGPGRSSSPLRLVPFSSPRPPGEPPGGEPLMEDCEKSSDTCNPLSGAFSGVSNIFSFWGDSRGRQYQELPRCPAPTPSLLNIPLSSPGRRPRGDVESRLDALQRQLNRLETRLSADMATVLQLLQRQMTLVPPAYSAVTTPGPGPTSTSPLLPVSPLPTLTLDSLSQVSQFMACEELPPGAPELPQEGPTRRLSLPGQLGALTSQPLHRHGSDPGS

T2 sequence (Q63380 1-617): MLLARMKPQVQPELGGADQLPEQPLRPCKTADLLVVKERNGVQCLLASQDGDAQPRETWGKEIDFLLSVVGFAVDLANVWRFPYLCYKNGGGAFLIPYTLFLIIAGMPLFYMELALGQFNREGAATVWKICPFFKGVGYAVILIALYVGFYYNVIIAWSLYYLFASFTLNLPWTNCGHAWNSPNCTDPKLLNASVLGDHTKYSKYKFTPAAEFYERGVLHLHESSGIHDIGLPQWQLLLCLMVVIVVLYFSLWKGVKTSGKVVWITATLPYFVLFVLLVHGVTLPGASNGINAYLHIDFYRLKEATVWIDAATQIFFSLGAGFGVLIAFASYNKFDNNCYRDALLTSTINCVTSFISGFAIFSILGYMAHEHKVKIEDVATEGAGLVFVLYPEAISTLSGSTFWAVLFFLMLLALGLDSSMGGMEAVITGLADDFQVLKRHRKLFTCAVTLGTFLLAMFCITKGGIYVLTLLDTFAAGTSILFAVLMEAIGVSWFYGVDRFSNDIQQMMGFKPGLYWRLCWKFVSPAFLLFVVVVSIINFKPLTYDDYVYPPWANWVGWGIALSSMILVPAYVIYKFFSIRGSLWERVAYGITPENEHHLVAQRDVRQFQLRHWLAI
T1 sequence (P08172 whole entry): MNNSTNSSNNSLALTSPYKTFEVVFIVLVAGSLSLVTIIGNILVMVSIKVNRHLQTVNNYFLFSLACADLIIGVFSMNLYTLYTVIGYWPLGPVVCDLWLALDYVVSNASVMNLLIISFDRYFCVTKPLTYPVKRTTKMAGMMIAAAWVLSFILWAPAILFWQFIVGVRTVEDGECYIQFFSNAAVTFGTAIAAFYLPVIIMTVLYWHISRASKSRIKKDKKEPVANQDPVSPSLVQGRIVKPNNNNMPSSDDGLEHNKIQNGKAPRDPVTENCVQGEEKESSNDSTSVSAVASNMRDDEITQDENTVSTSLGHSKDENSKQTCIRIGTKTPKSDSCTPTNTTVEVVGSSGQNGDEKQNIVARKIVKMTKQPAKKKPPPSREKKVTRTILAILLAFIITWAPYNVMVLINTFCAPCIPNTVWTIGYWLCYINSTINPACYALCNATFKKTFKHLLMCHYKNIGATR
T5 sequence (P08909 33-460): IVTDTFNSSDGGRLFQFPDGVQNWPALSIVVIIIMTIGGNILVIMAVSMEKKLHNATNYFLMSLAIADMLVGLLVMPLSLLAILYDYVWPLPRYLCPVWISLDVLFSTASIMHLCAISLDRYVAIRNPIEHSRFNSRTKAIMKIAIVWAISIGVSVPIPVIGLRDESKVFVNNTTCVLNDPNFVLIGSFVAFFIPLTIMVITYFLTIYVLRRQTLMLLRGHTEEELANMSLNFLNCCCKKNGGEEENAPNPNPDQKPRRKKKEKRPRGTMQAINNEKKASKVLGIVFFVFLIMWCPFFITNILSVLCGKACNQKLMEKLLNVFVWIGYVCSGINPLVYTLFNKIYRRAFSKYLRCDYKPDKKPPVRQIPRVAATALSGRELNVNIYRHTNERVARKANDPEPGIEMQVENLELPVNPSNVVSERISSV
Chain of Dopamine transporter (P23977 whole entry): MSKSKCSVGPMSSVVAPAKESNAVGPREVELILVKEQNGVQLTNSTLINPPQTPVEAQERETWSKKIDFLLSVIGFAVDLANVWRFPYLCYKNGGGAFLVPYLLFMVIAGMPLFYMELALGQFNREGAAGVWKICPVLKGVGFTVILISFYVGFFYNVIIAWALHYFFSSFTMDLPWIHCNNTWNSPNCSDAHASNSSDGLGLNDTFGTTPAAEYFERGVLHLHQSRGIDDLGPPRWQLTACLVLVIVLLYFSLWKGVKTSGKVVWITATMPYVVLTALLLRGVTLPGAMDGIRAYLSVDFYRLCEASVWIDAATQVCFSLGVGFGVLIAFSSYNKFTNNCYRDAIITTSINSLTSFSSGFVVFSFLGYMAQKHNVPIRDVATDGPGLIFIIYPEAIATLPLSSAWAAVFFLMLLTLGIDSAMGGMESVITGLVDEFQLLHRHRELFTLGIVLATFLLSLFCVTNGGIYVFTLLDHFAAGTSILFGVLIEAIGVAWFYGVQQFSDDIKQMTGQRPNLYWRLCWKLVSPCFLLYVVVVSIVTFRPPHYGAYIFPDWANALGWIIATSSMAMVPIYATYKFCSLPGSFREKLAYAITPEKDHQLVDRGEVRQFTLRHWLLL
Chain of Dopamine D1 receptor (P18901 whole entry): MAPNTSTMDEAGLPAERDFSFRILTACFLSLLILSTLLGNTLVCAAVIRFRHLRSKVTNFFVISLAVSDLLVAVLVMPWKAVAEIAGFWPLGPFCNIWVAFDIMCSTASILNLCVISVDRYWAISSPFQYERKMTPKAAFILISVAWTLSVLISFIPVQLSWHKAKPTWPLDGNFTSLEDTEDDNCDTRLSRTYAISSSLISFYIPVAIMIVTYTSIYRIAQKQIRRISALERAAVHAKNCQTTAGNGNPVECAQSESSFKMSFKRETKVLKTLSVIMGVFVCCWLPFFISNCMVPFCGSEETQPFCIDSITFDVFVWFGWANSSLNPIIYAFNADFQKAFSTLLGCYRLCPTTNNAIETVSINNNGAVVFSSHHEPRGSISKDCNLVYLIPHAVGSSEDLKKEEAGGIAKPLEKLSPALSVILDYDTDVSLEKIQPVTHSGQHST
T4 sequence (P08173 whole entry): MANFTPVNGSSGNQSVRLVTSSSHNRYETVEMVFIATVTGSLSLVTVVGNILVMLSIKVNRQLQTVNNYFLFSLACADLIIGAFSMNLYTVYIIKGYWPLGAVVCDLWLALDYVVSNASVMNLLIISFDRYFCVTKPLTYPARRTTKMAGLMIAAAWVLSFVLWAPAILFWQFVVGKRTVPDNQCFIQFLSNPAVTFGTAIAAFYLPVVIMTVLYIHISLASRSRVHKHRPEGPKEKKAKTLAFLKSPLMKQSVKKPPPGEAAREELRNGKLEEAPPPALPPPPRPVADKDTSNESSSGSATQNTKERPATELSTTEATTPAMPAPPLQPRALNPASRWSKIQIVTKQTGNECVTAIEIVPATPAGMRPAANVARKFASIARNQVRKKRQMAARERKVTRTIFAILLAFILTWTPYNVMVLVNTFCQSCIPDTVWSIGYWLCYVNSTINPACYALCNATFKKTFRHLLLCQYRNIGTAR
T3 sequence (P14842 whole entry): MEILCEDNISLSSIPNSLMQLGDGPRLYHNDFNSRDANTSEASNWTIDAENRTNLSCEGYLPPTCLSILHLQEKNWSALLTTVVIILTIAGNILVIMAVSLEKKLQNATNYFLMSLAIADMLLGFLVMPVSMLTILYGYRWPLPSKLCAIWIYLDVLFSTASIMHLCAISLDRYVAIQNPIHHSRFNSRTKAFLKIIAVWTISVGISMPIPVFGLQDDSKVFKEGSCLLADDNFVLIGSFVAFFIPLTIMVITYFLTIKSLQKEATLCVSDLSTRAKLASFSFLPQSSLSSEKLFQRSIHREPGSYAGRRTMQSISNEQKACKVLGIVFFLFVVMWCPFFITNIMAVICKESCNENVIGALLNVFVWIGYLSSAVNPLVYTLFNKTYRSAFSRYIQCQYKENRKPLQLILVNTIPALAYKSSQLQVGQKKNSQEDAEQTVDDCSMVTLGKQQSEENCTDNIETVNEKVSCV

## CN(C)CCC(Oc1cccc2c1OCO2)c1ccc(OCCCN2CCCCC2)cc1.O=C(O)C(=O)O (stereo not shown) [Compound 11b, 3-(benzo[d][1,3]dioxol-4-yloxy)-N,N-dimethyl-3-(4-(3-(piperidin-1-yl)propoxy)phenyl)propan-1-amine oxalate]
[1]
  Ki: > 1 µM
[2]
  Ki: > 1 µM
[3]
  minimal effective dose (MED) in TST: 10 mg/kg
[4]
  Ki: > 1 µM
[5]
  LD50 at 24 h: 512 mg/kg
[6]; 10 μM, n = 3
  Activation (10 μM, %) NET: 2.7 ± 0.2%
  inhibition at 10 µM: > 90%
[6]; [3H]NE uptake, antagonist assay
  IC50: 0.0496 µM
[7]
  Ki: 0.32 µM
[8]
  Ki: 1.17 ± 0.126 µM
[9]
  Ki: 0.0105 ± 0.0012 µM
[10]
  Ki: > 1 µM
[11]
  Ki: > 1 µM
[12]; 2 mg/kg iv
  AUC(0-inf): 265 ng·h/mL
  AUC(0-t): 261 ng·h/mL
  Cmax: 224 ng/mL
  MRT last: 1.2 h
  Tmax: 0.08 h
  half-life: 1.3 h
[12]; 20 mg/kg po
  AUC(0-inf): 944 ng·h/mL
  AUC(0-t): 942 ng·h/mL
  Cmax: 134 ng/mL
  MRT last: 5.4 h
  Tmax: 2 h
  half-life: 2.6 h
[12]; 20 mg/kg po vs 2 mg/kg iv, read-out: F (bioavailability)
  bioavailability: 35.6%
[13]
  Ki: > 1 µM
[14]
  IC50: 1 ± 0.112 µM
